{"source": "ChEMBL document CHEMBL3509421", "about": "“FDA drug approval package for diclofenac acid (NDA 22-202 CP, Ref ID: 3374276)”", "key": {"[1]": {"experiment": "(§1) Geometric mean for Cmax of diclofenac following single oral dosing of 35 mg Zorvolex capsule in healthy human", "type": "ADME, organism-based", "parameters": "dietary status Fasting, dose 35 mg, dosed compound id 2.46815e+06, dosed compound name Diclofenac, gender Mixed, regimen Single, route oral", "settings": "both, plasma"}, "[2]": {"experiment": "(§2) Median tmax of diclofenac following single oral dosing of 35 mg Zorvolex capsule in healthy human", "type": "ADME, organism-based", "parameters": "dietary status Fasting, dose 35 mg, dosed compound id 2.46815e+06, dosed compound name Diclofenac, gender Mixed, regimen Single, route oral", "settings": "both, plasma, read-out: Median Tmax"}, "[3]": {"experiment": "(§3) Minimum tmax of diclofenac following single oral dosing of 35 mg Zorvolex capsule in healthy human", "type": "ADME, organism-based, Plasma", "parameters": "dietary status Fasting, dose 35 mg, dosed compound id 2.46815e+06, dosed compound name Diclofenac, gender Mixed, regimen Single, route oral", "settings": "in vivo"}, "[4]": {"experiment": "(§4) Maximum tmax of diclofenac following single oral dosing of 35 mg Zorvolex capsule in healthy human", "type": "ADME, organism-based, Plasma", "parameters": "dietary status Fasting, dose 35 mg, dosed compound id 2.46815e+06, dosed compound name Diclofenac, gender Mixed, regimen Single, route oral", "settings": "in vivo"}, "[5]": {"experiment": "(§5) Mean apparent terminal elimination rate constant value of diclofenac following single oral dosing of 35 mg Zorvolex capsule in healthy human", "type": "ADME, organism-based, Plasma", "parameters": "dietary status Fasting, dose 35 mg, dosed compound id 2.46815e+06, dosed compound name Diclofenac, gender Mixed, regimen Single, route oral", "settings": "in vivo"}, "[6]": {"experiment": "(§6) Geometric mean for apparent terminal elimination rate constant of diclofenac following single oral dosing of 35 mg Zorvolex capsule in healthy human", "type": "ADME, organism-based, Plasma", "parameters": "dietary status Fasting, dose 35 mg, dosed compound id 2.46815e+06, dosed compound name Diclofenac, gender Mixed, regimen Single, route oral", "settings": "in vivo"}, "[7]": {"experiment": "(§7) Mean AUC (0-t) value of diclofenac following single oral dosing of 35 mg Zorvolex capsule in healthy human", "type": "ADME, organism-based", "parameters": "dietary status Fasting, dose 35 mg, dosed compound id 2.46815e+06, dosed compound name Diclofenac, gender Mixed, regimen Single, route oral", "settings": "both, plasma"}, "[8]": {"experiment": "(§8) Geometric mean for AUC (0-t) of diclofenac following single oral dosing of 35 mg Zorvolex capsule in healthy human", "type": "ADME, organism-based", "parameters": "dietary status Fasting, dose 35 mg, dosed compound id 2.46815e+06, dosed compound name Diclofenac, gender Mixed, regimen Single, route oral", "settings": "both, plasma"}, "[9]": {"experiment": "(§9) Mean AUC (0-infinity) value of diclofenac following single oral dosing of 35 mg Zorvolex capsule in healthy human", "type": "ADME, organism-based", "parameters": "time infinity, dietary status Fasting, dose 35 mg, dosed compound id 2.46815e+06, dosed compound name Diclofenac, gender Mixed, regimen Single, route oral", "settings": "both, plasma, read-out: AUC (0-infinity)"}, "[10]": {"experiment": "(§10) Geometric mean for AUC (0-infinity) of diclofenac following single oral dosing of 35 mg Zorvolex capsule in healthy human", "type": "ADME, organism-based", "parameters": "time infinity, dietary status Fasting, dose 35 mg, dosed compound id 2.46815e+06, dosed compound name Diclofenac, gender Mixed, regimen Single, route oral", "settings": "both, plasma, read-out: AUC (0-infinity)"}, "[11]": {"experiment": "Mean Cmax value of diclofenac following single oral dosing of 35 mg Zorvolex capsule in healthy human", "type": "ADME, organism-based", "parameters": "dietary status Fed, dose 35 mg, dosed compound id 2.46815e+06, dosed compound name Diclofenac, gender Mixed, regimen Single, route oral", "settings": "both, plasma"}, "[12]": {"experiment": "as §1", "type": "ADME, organism-based", "parameters": "dietary status Fed, dose 35 mg, dosed compound id 2.46815e+06, dosed compound name Diclofenac, gender Mixed, regimen Single, route oral", "settings": "both, plasma"}, "[13]": {"experiment": "as §2", "type": "ADME, organism-based", "parameters": "dietary status Fed, dose 35 mg, dosed compound id 2.46815e+06, dosed compound name Diclofenac, gender Mixed, regimen Single, route oral", "settings": "both, plasma, read-out: Median Tmax"}, "[14]": {"experiment": "as §3", "type": "ADME, organism-based, Plasma", "parameters": "dietary status Fed, dose 35 mg, dosed compound id 2.46815e+06, dosed compound name Diclofenac, gender Mixed, regimen Single, route oral", "settings": "in vivo"}, "[15]": {"experiment": "as §4", "type": "ADME, organism-based, Plasma", "parameters": "dietary status Fed, dose 35 mg, dosed compound id 2.46815e+06, dosed compound name Diclofenac, gender Mixed, regimen Single, route oral", "settings": "in vivo"}, "[16]": {"experiment": "as §5", "type": "ADME, organism-based, Plasma", "parameters": "dietary status Fed, dose 35 mg, dosed compound id 2.46815e+06, dosed compound name Diclofenac, gender Mixed, regimen Single, route oral", "settings": "in vivo"}, "[17]": {"experiment": "as §6", "type": "ADME, organism-based, Plasma", "parameters": "dietary status Fed, dose 35 mg, dosed compound id 2.46815e+06, dosed compound name Diclofenac, gender Mixed, regimen Single, route oral", "settings": "in vivo"}, "[18]": {"experiment": "as §7", "type": "ADME, organism-based", "parameters": "dietary status Fed, dose 35 mg, dosed compound id 2.46815e+06, dosed compound name Diclofenac, gender Mixed, regimen Single, route oral", "settings": "both, plasma"}, "[19]": {"experiment": "as §8", "type": "ADME, organism-based", "parameters": "dietary status Fed, dose 35 mg, dosed compound id 2.46815e+06, dosed compound name Diclofenac, gender Mixed, regimen Single, route oral", "settings": "both, plasma"}, "[20]": {"experiment": "as §9", "type": "ADME, organism-based", "parameters": "time infinity, dietary status Fed, dose 35 mg, dosed compound id 2.46815e+06, dosed compound name Diclofenac, gender Mixed, regimen Single, route oral", "settings": "both, plasma, read-out: AUC (0-infinity)"}, "[21]": {"experiment": "as §10", "type": "ADME, organism-based", "parameters": "time infinity, dietary status Fed, dose 35 mg, dosed compound id 2.46815e+06, dosed compound name Diclofenac, gender Mixed, regimen Single, route oral", "settings": "both, plasma, read-out: AUC (0-infinity)"}, "[22]": {"experiment": "Mean Cmax value of diclofenac following single oral dosing of 50 mg Cataflam tablet in healthy human", "type": "ADME, organism-based", "parameters": "dietary status Fasting, dose 50 mg, dosed compound id 2.46815e+06, dosed compound name Diclofenac potassium, gender Mixed, regimen Single, route oral", "settings": "both, plasma"}, "[23]": {"experiment": "Geometric mean for Cmax of diclofenac following single oral dosing of 50 mg Cataflam tablet in healthy human", "type": "ADME, organism-based", "parameters": "dietary status Fasting, dose 50 mg, dosed compound id 2.46815e+06, dosed compound name Diclofenac potassium, gender Mixed, regimen Single, route oral", "settings": "both, plasma"}, "[24]": {"experiment": "Median tmax of diclofenac following single oral dosing of 50 mg Cataflam tablet in healthy human", "type": "ADME, organism-based", "parameters": "dietary status Fasting, dose 50 mg, dosed compound id 2.46815e+06, dosed compound name Diclofenac potassium, gender Mixed, regimen Single, route oral", "settings": "both, plasma, read-out: Median Tmax"}, "[25]": {"experiment": "Minimum tmax of diclofenac following single oral dosing of 50 mg Cataflam tablet in healthy human", "type": "ADME, organism-based, Plasma", "parameters": "dietary status Fasting, dose 50 mg, dosed compound id 2.46815e+06, dosed compound name Diclofenac potassium, gender Mixed, regimen Single, route oral", "settings": "in vivo"}, "[26]": {"experiment": "Maximum tmax of diclofenac following single oral dosing of 50 mg Cataflam tablet in healthy human", "type": "ADME, organism-based, Plasma", "parameters": "dietary status Fasting, dose 50 mg, dosed compound id 2.46815e+06, dosed compound name Diclofenac potassium, gender Mixed, regimen Single, route oral", "settings": "in vivo"}, "[27]": {"experiment": "Mean apparent terminal elimination rate constant value of diclofenac following single oral dosing of 50 mg Cataflam tablet in healthy human", "type": "ADME, organism-based, Plasma", "parameters": "dietary status Fasting, dose 50 mg, dosed compound id 2.46815e+06, dosed compound name Diclofenac potassium, gender Mixed, regimen Single, route oral", "settings": "in vivo"}, "[28]": {"experiment": "Geometric mean for apparent terminal elimination rate constant of diclofenac following single oral dosing of 50 mg Cataflam tablet in healthy human", "type": "ADME, organism-based, Plasma", "parameters": "dietary status Fasting, dose 50 mg, dosed compound id 2.46815e+06, dosed compound name Diclofenac potassium, gender Mixed, regimen Single, route oral", "settings": "in vivo"}, "[29]": {"experiment": "Mean AUC (0-t) value of diclofenac following single oral dosing of 50 mg Cataflam tablet in healthy human", "type": "ADME, organism-based", "parameters": "dietary status Fasting, dose 50 mg, dosed compound id 2.46815e+06, dosed compound name Diclofenac potassium, gender Mixed, regimen Single, route oral", "settings": "both, plasma"}, "[30]": {"experiment": "Mean AUC (0-infinity) value of diclofenac following single oral dosing of 50 mg Cataflam tablet in healthy human", "type": "ADME, organism-based", "parameters": "time infinity, dietary status Fasting, dose 50 mg, dosed compound id 2.46815e+06, dosed compound name Diclofenac potassium, gender Mixed, regimen Single, route oral", "settings": "both, plasma, read-out: AUC (0-infinity)"}, "[31]": {"experiment": "Geometric mean for AUC (0-infinity) of diclofenac following single oral dosing of 50 mg Cataflam tablet in healthy human", "type": "ADME, organism-based, Plasma", "parameters": "time infinity, dietary status Fasting, dose 50 mg, dosed compound id 2.46815e+06, dosed compound name Diclofenac potassium, gender Mixed, regimen Single, route oral", "settings": "in vivo"}}, "data": [{"compound": "O=C(O)Cc1ccccc1Nc1c(Cl)cccc1Cl", "note": "[DICLOFENAC]", "values": [{"measurement": "Cmax", "setting": "[1]", "value": 804, "unit": "ng/mL"}, {"measurement": "Tmax", "setting": "[2]", "value": 1, "unit": "h"}, {"measurement": "Minimum Tmax", "setting": "[3]", "value": 0.47, "unit": "h"}, {"measurement": "Maximum Tmax", "setting": "[4]", "value": 4, "unit": "h"}, {"measurement": "lambda-z", "setting": "[5]", "value": 0.349, "unit": "h⁻¹"}, {"measurement": "lambda-z", "setting": "[6]", "value": 0.34, "unit": "h⁻¹"}, {"measurement": "AUC(0-t)", "setting": "[7]", "value": 1000, "unit": "ng·h/mL"}, {"measurement": "AUC(0-t)", "setting": "[8]", "value": 980, "unit": "ng·h/mL"}, {"measurement": "AUC(0-inf)", "setting": "[9]", "value": 1000, "unit": "ng·h/mL"}, {"measurement": "AUC(0-inf)", "setting": "[10]", "value": 979, "unit": "ng·h/mL"}, {"measurement": "Cmax", "setting": "[11]", "value": 355, "unit": "ng/mL"}, {"measurement": "Cmax", "setting": "[12]", "value": 321, "unit": "ng/mL"}, {"measurement": "Tmax", "setting": "[13]", "value": 3.32, "unit": "h"}, {"measurement": "Minimum Tmax", "setting": "[14]", "value": 0.5, "unit": "h"}, {"measurement": "Maximum Tmax", "setting": "[15]", "value": 10, "unit": "h"}, {"measurement": "lambda-z", "setting": "[16]", "value": 0.371, "unit": "h⁻¹"}, {"measurement": "lambda-z", "setting": "[17]", "value": 0.333, "unit": "h⁻¹"}, {"measurement": "AUC(0-t)", "setting": "[18]", "value": 861, "unit": "ng·h/mL"}, {"measurement": "AUC(0-t)", "setting": "[19]", "value": 837, "unit": "ng·h/mL"}, {"measurement": "AUC(0-inf)", "setting": "[20]", "value": 876, "unit": "ng·h/mL"}, {"measurement": "AUC(0-inf)", "setting": "[21]", "value": 852, "unit": "ng·h/mL"}, {"measurement": "Cmax", "setting": "[22]", "value": 1190, "unit": "ng/mL"}, {"measurement": "Cmax", "setting": "[23]", "value": 1090, "unit": "ng/mL"}, {"measurement": "Tmax", "setting": "[24]", "value": 1, "unit": "h"}, {"measurement": "Minimum Tmax", "setting": "[25]", "value": 0.25, "unit": "h"}, {"measurement": "Maximum Tmax", "setting": "[26]", "value": 4.48, "unit": "h"}, {"measurement": "lambda-z", "setting": "[27]", "value": 0.333, "unit": "h⁻¹"}, {"measurement": "lambda-z", "setting": "[28]", "value": 0.318, "unit": "h⁻¹"}, {"measurement": "AUC(0-t)", "setting": "[29]", "value": 1320, "unit": "ng·h/mL"}, {"measurement": "AUC(0-inf)", "setting": "[30]", "value": 1330, "unit": "ng·h/mL"}, {"measurement": "AUC (0-infinity)", "setting": "[31]", "value": 1301.961, "unit": "ng·h/mL"}]}]}
